# Measured values reported in article PMC11219871, “Epigenetic-based differentiation therapy for Acute Myeloid Leukemia” (Nature Communications, 2024).
# “And” between values parts separate entries of the source, which are not always exact repeats. Equal entries are not always repeated.
# Key:
# [1] = Cytotoxicity (LC50); type: cell-based; conditions: human, THLE-2 cells (immortalized liver cell line, ATCC CRL-2706)
# [2] = molecular target: T1, HDAC11 (Homo sapiens, UniProt Q96DB2); assay: Continuous and direct activity assay for HDAC11; type: biochemical; conditions: for inhibition at 10 µM: source data of Fig. 1B; for IC50: Continuous Activity Assay for HDAC11
# T1 sequence (Q96DB2 1-347): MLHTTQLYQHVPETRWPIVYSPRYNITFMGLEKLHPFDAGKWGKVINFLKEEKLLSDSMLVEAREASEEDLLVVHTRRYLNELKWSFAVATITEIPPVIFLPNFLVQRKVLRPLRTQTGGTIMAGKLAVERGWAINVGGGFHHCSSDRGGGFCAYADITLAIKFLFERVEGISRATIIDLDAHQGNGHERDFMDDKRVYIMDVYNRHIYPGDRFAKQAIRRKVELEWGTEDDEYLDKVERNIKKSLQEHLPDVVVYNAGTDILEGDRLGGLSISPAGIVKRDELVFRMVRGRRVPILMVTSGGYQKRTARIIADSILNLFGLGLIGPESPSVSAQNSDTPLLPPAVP
# [3] = molecular target: HDAC2 (Homo sapiens, UniProt Q92769); assay: HDAC enzymatic assay, fluorescence-labeled substrate; type: biochemical; conditions: for inhibition at 10 µM: source data of Fig. 1B
# [4] = system: ML-2 cells in BALB/cA Rag2-/-γc-/- mice; assay: Subcutaneous implant of in vitro pretreated cells, tumor volume; type: in vivo, mouse; design: key to Tumor volume: mm^3; V = D×d²/2 (D longest, d shortest diameter); conditions: for tumor growth: ML-2 cells pretreated in vitro 4 days, s.c.; for Tumor volume: ML-2 cells pretreated in vitro for 96 hours, injected subcutaneously, individual mice (Fig 3A)
# Description: (§1) The human AML HL-60 and ML-2 cell lines were first pretreated in vitro daily with 270 and 260 nM of CM-444 or 300 and 210 nM of CM-1758, respectively, for 4 days. Prior to injection in mice, the cell differentiation induction by CM-444 and CM-1758 compounds was verified by measuring CD11b by flow cytometry, as described earlier. Then, 5 × 10^6 cells of cells, pretreated with CM-444, […], or vehicle (80% saline solution, 10% DMSO and 10% Tween 20) and diluted in 100 µL of saline solution, were implanted subcutaneously into the flank of female BALB/cA Rag2^−/−γc^−/− mice between 6 and 8 weeks of age (n = 8). Tumor size was analyzed every 2–3 days using the following method: […], where D and d corresponded to the longest and shortest diameter, respectively. The maximal tumor size/burden permitted by the Animal Care and Ethics Committee of the University of Navarra is 2000 mm^3. In some cases, this limit was reached on the last day of measurement and the mice were immediately euthanized.
# [5] = system: HL-60 cells in BALB/cA Rag2-/-γc-/- mice; assay: as above; type: in vivo, mouse; design: key to Tumor volume: mm^3; V = D×d²/2 (D longest, d shortest diameter); conditions: for tumor growth: HL-60 cells pretreated in vitro 4 days, s.c.; for Tumor volume: HL-60 cells pretreated in vitro for 96 hours with 270 nM of CM-444 or 300 nM of CM-1758, injected subcutaneously, individual mice
# Description: as §1
# [6] = molecular target: T2, HDAC6 (Homo sapiens, UniProt Q9UBN7); assay: HDAC enzymatic assay, fluorescence-labeled substrate; type: biochemical; conditions: for inhibition at 10 µM: source data of Fig. 1B; for IC50: read-out: IC50
# T2 sequence (Q9UBN7 1-1215): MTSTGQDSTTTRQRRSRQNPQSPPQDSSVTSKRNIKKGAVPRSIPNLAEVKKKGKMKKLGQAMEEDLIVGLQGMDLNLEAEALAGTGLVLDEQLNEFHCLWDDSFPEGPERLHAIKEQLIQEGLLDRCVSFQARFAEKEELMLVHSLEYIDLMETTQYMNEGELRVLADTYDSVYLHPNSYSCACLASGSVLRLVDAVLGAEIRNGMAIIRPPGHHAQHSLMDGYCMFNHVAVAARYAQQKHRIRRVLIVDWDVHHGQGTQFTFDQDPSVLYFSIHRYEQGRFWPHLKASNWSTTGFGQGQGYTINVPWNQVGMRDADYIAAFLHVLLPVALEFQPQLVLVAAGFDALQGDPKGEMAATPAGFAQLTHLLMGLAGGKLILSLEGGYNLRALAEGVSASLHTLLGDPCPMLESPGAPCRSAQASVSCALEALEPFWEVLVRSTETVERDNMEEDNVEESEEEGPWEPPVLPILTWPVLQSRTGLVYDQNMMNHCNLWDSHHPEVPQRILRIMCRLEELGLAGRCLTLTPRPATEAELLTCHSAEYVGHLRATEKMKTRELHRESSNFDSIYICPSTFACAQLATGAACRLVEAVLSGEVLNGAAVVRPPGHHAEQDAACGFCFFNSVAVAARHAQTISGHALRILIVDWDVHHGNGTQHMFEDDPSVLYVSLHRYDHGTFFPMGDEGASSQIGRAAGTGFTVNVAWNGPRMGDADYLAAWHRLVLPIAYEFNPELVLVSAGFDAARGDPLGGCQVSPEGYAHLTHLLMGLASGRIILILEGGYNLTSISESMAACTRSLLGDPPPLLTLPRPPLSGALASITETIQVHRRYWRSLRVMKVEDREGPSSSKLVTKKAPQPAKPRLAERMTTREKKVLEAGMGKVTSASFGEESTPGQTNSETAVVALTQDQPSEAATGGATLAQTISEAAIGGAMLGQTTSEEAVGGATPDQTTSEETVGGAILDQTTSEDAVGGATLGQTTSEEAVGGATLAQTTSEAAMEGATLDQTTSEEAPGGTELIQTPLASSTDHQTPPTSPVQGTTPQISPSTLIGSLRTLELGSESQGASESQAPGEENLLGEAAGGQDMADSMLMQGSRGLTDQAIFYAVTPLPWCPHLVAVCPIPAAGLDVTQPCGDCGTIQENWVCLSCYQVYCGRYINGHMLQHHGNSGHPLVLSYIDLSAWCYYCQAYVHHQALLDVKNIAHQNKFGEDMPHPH
# [7] = Cytotoxicity (LC50); type: cell-based; conditions: human, PBMCs from healthy donors, 72-h exposure
# HDAC2, sequence (Q92769 whole entry): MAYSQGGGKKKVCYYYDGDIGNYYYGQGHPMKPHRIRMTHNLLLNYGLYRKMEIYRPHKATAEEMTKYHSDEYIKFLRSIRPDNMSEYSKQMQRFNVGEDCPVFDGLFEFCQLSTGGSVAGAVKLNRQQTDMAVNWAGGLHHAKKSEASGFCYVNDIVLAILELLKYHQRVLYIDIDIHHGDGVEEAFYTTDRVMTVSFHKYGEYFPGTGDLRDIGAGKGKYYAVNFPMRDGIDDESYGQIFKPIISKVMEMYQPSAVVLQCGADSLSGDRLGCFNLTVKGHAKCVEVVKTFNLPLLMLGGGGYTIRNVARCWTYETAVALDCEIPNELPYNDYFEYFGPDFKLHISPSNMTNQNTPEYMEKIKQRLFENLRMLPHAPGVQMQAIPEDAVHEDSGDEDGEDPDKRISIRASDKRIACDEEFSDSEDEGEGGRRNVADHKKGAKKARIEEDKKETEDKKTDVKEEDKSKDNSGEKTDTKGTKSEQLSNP
compound,measurement,setting,value
"COc1cc2nc(-c3cc(C)oc3C)cc(NCC3CCN(c4ncc(C(=O)NO)cn4)CC3)c2cc1OC [CM-1758, 2-[4-[[[2-(2,5-dimethyl-3-furyl)-6,7-dimethoxy-4-quinolyl]amino]methyl] -1-piperidyl]pyrimidine-5-carbohydroxamic acid]",CC50,[1],779 nM
same,inhibition at 10 µM,[2],90%
same,IC50,[2],600 nM
same,IC50,[3],31 nM
same,inhibition at 10 µM,[3],90%
same,tumor growth,[4],tumor growth was significantly slower
same,Tumor volume,"[4]; day 0, in mm³",0
same,Tumor volume,"[4]; day 5, in mm³",0
same,Tumor volume,"[4]; day 7, in mm³",0
same,Tumor volume,[4]; day 9,1.83 and 2.997 and 3.143 and 0 (4×) and 2.907
same,Tumor volume,"[4]; day 12, in mm³",16.9153 and 75.9412 and 211.561 and 0 and 9.058 and 82.0914 and 8.878 and 27.0425
same,Tumor volume,"[4]; day 14, in mm³",153.626 and 316.908 and 512.533 and 39.4763 and 33.8029 and 280.96 and 104.197 and 181.612
same,Tumor volume,"[4]; day 16, in mm³",325.692 and 736.294 and 1010.72 and 175.673 and 76.8746 and 574.138 and 425.416 and 598.506
same,tumor growth,[5],tumor growth was significantly slower
same,Tumor volume,"[5]; day 0, in mm³",0
same,Tumor volume,[5]; day 6,14.6888 and 24.2273 and 0 (4×) and 45.3546
same,Tumor volume,[5]; day 8,103.082 and 62.3824 and 0 (2×) and 92.0448 and 53.4746 and 85.0123
same,Tumor volume,"[5]; day 10, in mm³",433.416 and 271.101 and 281.205 and 32.0688 and 347.688 and 41.4834 and 382.357
same,Tumor volume,"[5]; day 13, in mm³",1283.62 and 996.2 and 1210.81 and 1389.27 and 1272.73 and 1452.46 and 1063.15
same,inhibition at 10 µM,[6],90%
same,IC50,[6],257 nM
same,CC50 at 72 h,[7],2410 nM
"COc1cc2nc(-c3ccc(C)o3)cc(NCC3CCN(c4ncc(C(=O)NO)cn4)CC3)c2cc1OC [CM-444, 2-[4-[[[6,7-dimethoxy-2-(5-methyl-2-furyl)-4-quinolyl]amino]methyl]-1-piperidyl]pyrimidine-5-carbohydroxamic acid]",CC50,[1],794 nM
same,inhibition at 10 µM,[2],90%
same,IC50,[2],568 nM
same,IC50,[3],51 nM
same,inhibition at 10 µM,[3],90%
same,tumor growth,[4],tumor growth was significantly slower
same,Tumor volume,"[4]; day 0, in mm³",0
same,Tumor volume,"[4]; day 5, in mm³",0
same,Tumor volume,"[4]; day 7, in mm³",0
same,Tumor volume,[4]; day 9,0 (5×) and 2.103 and 2.907 and 1.967
same,Tumor volume,[4]; day 12,0 (3×) and 15.5058 and 44.8074 and 14.292 and 43.7037 and 21.7346
same,Tumor volume,"[4]; day 14, in mm³",56.0772 and 79.1967 and 185.795 and 76.3392 and 203.44 and 147.179 and 18.725 and 23.4078
same,Tumor volume,"[4]; day 16, in mm³",136.524 and 233.533 and 382.095 and 345.104 and 527.015 and 508.257 and 54.687 and 46.2692
same,tumor growth,[5],tumor growth was significantly slower
same,Tumor volume,"[5]; day 0, in mm³",0
same,Tumor volume,[5]; day 6,0 (3×) and 15.188 and 103.406 and 17.053
same,Tumor volume,"[5]; day 8, in mm³",74.6826 and 76.624 and 60.9783 and 227.696 and 55.1928 and 10.6605 and 0
same,Tumor volume,"[5]; day 10, in mm³",208.487 and 290.654 and 187.094 and 596.573 and 195.686 and 84.5628 and 14.1488
same,Tumor volume,"[5]; day 13, in mm³",1082.75 and 1016.65 and 1040.97 and 728.909 and 903.701 and 1085.29
same,inhibition at 10 µM,[6],90%
same,IC50,[6],531 nM
same,CC50 at 72 h,[7],1240 nM
